Test results reported in patent US9055743B2, “Alpha, beta-unsaturated imines” (BAYER INTELLECTUAL PROPERTY GMBH, priority 2010, dated 2015).

Assays:
Format in all cases: in vivo
[1] = tested on: Aedes aegypti; test: Aedes test (AEDSAE surface treatment); details: for knock-down activity: 100 mg/m^2, two hours after contact, exposition 30 minutes
Procedure: Aedes Test (AEDSAE Surface Treatment)
(§1) To produce a suitable preparation of active compound, the active compound is dissolved in acetone (2 mg/ml). The active compound preparation is pipetted onto a glazed tile and, after drying, adult mosquitoes of the species Aedes aegypti are placed onto the treated tile. The exposition time is 30 minutes.
(§2) Two hours after contact to the treated surface, the knock-down proportion of the test animals in % is determined.
24 hours after contact to the treated surface, the mortality in % is determined Here, 100% means that all mosquitoes have been killed; 0% means that none of the mosquitoes has been killed.

[2] = tested on: green peach aphid (Myzus persicae); test: Myzus test (MYZUPE spray treatment); details: 500 g/ha, spray, after 6 days
Procedure: Myzus Test (MYZUPE Spray Treatment) Solvents: 78 parts by weight of acetone • • 1.5 parts by weight of dimethylformamide Emulsifier: 0.5 part by weight of alkylaryl polyglycol ether
(§3) To produce a suitable preparation of active compound, 1 part by weight of active compound is mixed with the stated amounts of solvents and emulsifier, and the concentrate is diluted with emulsifier-containing water to the desired concentration.
Discs of Chinese cabbage leaves (Brassica pekinensis) which are infested by all stages of the green peach aphid (Myzus persicae) are sprayed with an active compound preparation of the desired concentration.
After 6 days, the activity in % is determined. 100% means that all aphids have been killed; 0% means that none of the aphids have been killed.

[3] = tested on: greenhouse red spider mite (Tetranychus urticae); test: Tetranychus test; OP-resistant (TETRUR spray treatment); details: 500 g/ha, spray, after 6 days
Procedure: Tetranychus Test; OP-Resistant (TETRUR Spray Treatment) Solvents: 78.0 parts by weight of acetone • • 1.5 parts by weight of dimethylformamide Emulsifier: 0.5 part by weight of alkylaryl polyglycol ether
as §3
Discs of bean leaves (Phaseolus vulgaris) infested by all stages of the greenhouse red spider mite (Tetranychus urticae) are sprayed with an active compound preparation of the desired concentration.
After 6 days, the activity in % is determined. 100% means that all spider mites have been killed; 0% means that none of the spider mites have been killed.

[4] = tested on: Anopheles gambiae (homocygus kdr); test: Anopheles test (ANPHGB surface treatment); details: for knock-down activity: 100 mg/m^2, two hours after contact, exposition 30 minutes
Procedure: Anopheles Test (ANPHGB Surface Treatment) Solvent: Acetone
as §1, with “Anopheles gambiae (homocygus kdr)” for “Aedes aegypti”
as §2
24 hours after contact to the treated surface, the mortality in % is determined. Here, 100% means that all mosquitoes have been killed; 0% means that none of the mosquitoes has been killed.

[5] = tested on: caterpillars of the army worm (Spodoptera frugiperda); test: Spodoptera frugiperda test (SPODFR spray treatment); details: 500 g/ha, spray, after 7 days
Procedure: Spodoptera frugiperda Test (SPODFR Spray Treatment) Solvents: 78.0 parts by weight of acetone • • 1.5 parts by weight of dimethylformamide Emulsifier: 0.5 part by weight of alkylaryl polyglycol ether
as §3
Discs of maize leaves (Zea mays) are sprayed with an active compound preparation of the desired concentration and, after drying, populated with caterpillars of the army worm (Spodoptera frugiperda) besetzt.
After 7 days, the activity in % is determined. 100% means that all caterpillars have been killed; 0% means that none of the caterpillars have been killed.

[6] = tested on: larvae of the mustard beetle (Phaedon cochleariae); test: Phaedon test (PHAECO spray treatment); details: 500 g/ha, spray, after 7 days
Procedure: Phaedon Test ([…] Spray Treatment) Solvents: 78.0 parts by weight of acetone • • 1.5 parts by weight of dimethylformamide Emulsifier: 0.5 part by weight of alkylaryl polyglycol ether To produce a suitable preparation of active compound, 1 part by weight of active compound is mixed with the stated amounts of solvents and emulsifiers, and the concentrate is diluted with emulsifier-containing water to the desired concentration. Discs of Chinese cabbage leaves (Brassica pekinensis) are sprayed with an active compound preparation of the desired concentration and, after drying, populated with larvae of the mustard beetle (Phaedon cochleariae).

[7] = tested on: cat fleas (Ctenocephalides felis, fully sensitive laboratory strain); test: Contact test against fleas in-vitro (CTECFE contact); details: 500 g/ha, after 48 h
Procedure: Contact Test Against Fleas In-Vitro (CTECFE Contact)
An amount of 0.9 mg of active compound is weighed out, and 1 ml of acetone is added.
Of this acetone solution, either […] are transferred directly into roll-necked test tubes or an aliquot is diluted with 4 parts of acetone 1:5. For its part, 250 μl of this dilution are pipetted into roll-necked test tubes, or the dilution is diluted further, etc., until the desired number of dilution steps is reached.
The roll-necked test tubes containing the solution of the active compound in acetone are immediately coated in a fume cupboard by 2 h of swing rotation at 30 rpm. After evaporation of the solvent, the active compound contained in the acetone gives, at the highest concentration tested, an active compound content of 500 g/ha (or 500 μg/dm^2) on the surface of the test tube.
10-20 Adult cat fleas (Ctenocephalides felis, fully sensitive laboratory strain) anesthetized with CO2 are transferred into the test tubes prepared in this manner, and the test tubes are closed with a plastic roll-necked lid provided with fine holes.
The test tubes are stored vertically at room temperature and humidity for 24 or 48 h. After 24 and 48 h, the activity of the active compound applied is determined by comparison with an acetone-treated control. Here, an observed normal activity for all fleas corresponds to 0% activity, a strongly restricted or uncoordinated (knock-down) movement or death of all fleas corresponds to 100% activity.

Row | SMILES | knock-down activity [1] [%] | activity (aphids killed) [2] [%] | activity (spider mites killed) [3] [%] | knock-down activity [4] [%] | activity (caterpillars killed) [5] [%] | activity (beetle larvae killed) [6] [%] | activity against cat fleas [7] [%] | mortality at 100 mg/m2 ([1]; Aedes aegypti, read-out: activity (mortality in %)) [%] | mortality at 100 mg/m2 ([4]; Anopheles gambiae, read-out: activity (mortality in %)) [%] | pest or weed control at 500 g/ha ([5]; Spodoptera frugiperda, 168 h, read-out: activity (caterpillars killed)) [%] | pest or weed control at 500 g/ha ([6]; Phaedon cochleariae, 168 h, read-out: activity (beetle larvae killed)) [%] | pest or weed control at 500 g/ha ([2]; Myzus persicae, 144 h, read-out: activity (aphids killed)) [%] | pest or weed control at 500 g/ha ([3]; Tetranychus urticae, 144 h, read-out: activity (spider mites killed)) [%]
1 | CCOC1=CC(=CSc2ccc(F)cc2)C(=Nc2ccc(C)cc2)CC1 (mixture of isomers) [Example 1-96] | 80 | 90 | 90 |  |  |  |  |  |  |  |  |  | 
2 | Cc1ccc(N=C2C(=CSc3ccc(F)cc3)C(C)c3cc(C)ccc32)cc1 (mixture of isomers) [Example 1-51] | 85 | 100 |  | 100 | 100 | 100 |  |  |  |  |  |  | 
3 | Cc1ccc(N=C2c3ccccc3OCC2C(Sc2ccc(F)cc2)Sc2ccc(F)cc2)cc1 (stereo not shown) [Example 2-11] |  | 100 | 100 |  | 100 | 100 | 100 |  |  |  |  |  | 
4 | Cc1ccc(N=C2C(=CSc3ccc(F)cc3)CC(C)c3ccccc32)cc1 (stereo not shown) [Example 1-14] |  | 100 | 100 | 95 | 100 | 100 | 100 |  |  |  |  |  | 
5 | Cc1ccc(N=C2C(=CSc3cccc(F)c3)C3CCC2C3)cc1 (stereo not shown) [Example 1-102] | 100 |  |  | 100 |  |  |  |  |  |  |  |  | 
6 | Cc1ccc(N=C2c3ccccc3CCC2C(Sc2ccccc2)Sc2ccccc2)cc1 (stereo not shown) [Example 2-1] | 100 |  |  | 100 |  |  |  | 100 | 100 | 100 | 100 | 90 | 80
7 | COc1ccc2c(c1)C(C)C(=CSc1ccc(F)cc1)C2=Nc1ccc(C)cc1 (mixture of isomers) [Example 1-65] | 85 | 100 | 100 | 100 | 100 | 100 |  |  |  |  |  |  | 
8 | Cc1ccc(N=C2C(=CSc3ccc(F)cc3)CSc3cc(C)ccc32)cc1 [Example 1-76] | 80 |  |  | 100 |  |  |  |  |  |  |  |  | 
9 | Cc1ccc(N=C2C(=CSc3ccc(F)cc3)CCc3cc(Cl)ccc32)cc1 [Example 1-47] |  | 100 | 100 | 85 | 100 | 100 | 100 |  |  |  |  |  | 
10 | Cc1ccc(N=C2C(=CSc3ccc(F)cc3)COc3ccc(F)cc32)cc1 [Example 1-23] |  |  |  |  | 100 | 100 | 100 |  |  |  |  |  | 
11 | C(Sc1ccccc1)=C1CCc2ccccc2C1=Nc1ccccc1 [Example 1-8] |  |  | 100 | 85 | 100 | 100 | 100 |  |  |  |  |  | 
12 | Cc1ccc(N=C2C=CC(C)(C)CC2=CSc2ccc(F)cc2)cc1 (mixture of isomers) [Example 1-44] | 90 |  | 90 | 100 | 83 |  |  |  |  |  |  |  | 
